Three substances from patent US10945962B2, “Controlled-release peptide compositions and uses thereof” (BOARD OF REGENTS OF THE UNIVERSITY OF NEBRASKA, priority 2011, dated 2021) can be followed below.

Square brackets hold non-standard residues; d marks the D form. Ends that are not written are not given here.

Test [1] concerns E. coli strain DHSα. Description: Direct killing of bacteria, OD600 growth curves. It counts as cell-based. The note with it: added at OD600 0.2, 500 μg/m, LB or TSB. The procedure:
E. coli strain DHSα was grown overnight in Lennox Broth (LB). This culture was diluted to an optical density at […] (OD600) of 0.06. The diluted E. coli was dispensed in 1.5 ml aliquots into separate tubes and 1.5 ml of EP67 ([…] ID NO: 4)), EP54 ([…] NO: 3)), scrambled-EP67 (s-EP67) or scrambled-EP54 in LB was added to obtain a final concentration of 500 μg/ml with the E. coli at an OD600 of 0.03. A culture in LB was also prepared. The cultures were incubated at 37° C. with shaking and the OD600 readings recorded hourly. In order to determine whether the growth media altered the effectiveness of EP67, LB was replaced with an alternative growth media, Tryptic Soy Broth (TSB). To test the efficacy of EP67 on bacteria growing in log phase, overnight cultures of DHSα were grown in either LB or TSB. […] DH5α control cultures (absence of additives) were also prepared. The tubes were further shaken at 37° C. and OD600 readings were taken hourly.

For test [2], the system named is neutrophils. Description: Neutrophil chemotaxis and myeloperoxidase assay, histopathology of injection site. It is filed as in vivo, CD1 mice. The note with it: 250 μg s.c., no bacteria. The procedure: Neutrophil chemotaxis and myeloperoxidase assay. Neutrophil recruitment at the site of injection by EP67 or sEP67 was examined using an in vivo chemotaxis assay as described previously (van Sorge N M, et al., PLoS One 2008; 3:e2964). Briefly, 250 μg EP67 or sEP67 were injected subcutaneously into the right flank of CD1 mice. The injection was repeated after 24 h. Mice were euthanized 4 h after the second injection and the site of injection excised for histopathologic analysis or determination of myeloperoxidase (MPO) activity as described previously (van Sorge N M, et al., supra). The assay was carried out two times and the samples analyzed in duplicate.
Neutrophil influx is essential for the protective action of EP67. […] Neutrophil recruitment to the site of EP67 injection was further analyzed using an in vivo neutrophil recruitment assay as described previously (van Sorge N M, et al., supra; and Banerjee A, et al., Cell Microbiol; 12:1576-1588). Neutrophil migration was assessed in skin homogenates following injection of EP67 or sEP67 by determining the level of neutrophil enzyme myeloperoxidase (MPO), which serves as an effective indication of neutrophil infiltration (Banerjee A, et al., supra; and Bradley P P, et al., J Invest Dermatol 1982; 78:206-209). This method compares well with other in vivo assays of neutrophil chemotaxis (van Sorge N M, et al., supra).

Test [3] concerns MUC1 epitope. Nature of the test: Immunization with MUC1/C5a agonist peptides, serum antibody responses (RIA, ELISA). It counts as in vivo. The note with it: 100 μg i.p. with RIBI adjuvant, three immunizations, Balb/c and C57B16 mice. An excerpt: Animal Models. The strains of mice used in the studies described in this Example were inbred 6- to 12-week-old C57B16(H-2b) and Balb/c ([…]) females obtained from Jackson Labs (Bar Harbor, Me.). […] The MUC1 peptide selected for these studies contained a motif that may bind to the H-2Kb molecule of the C57B16 mice. Therefore, a strain of mouse that lacked this class I molecule-binding motif (Balb/c) was also studied to determine the relative contribution of the class I-binding motif to the antigen presentation properties of these peptides.
Immunization Protocol. Preimmune sera were obtained from mice, which were subsequently immunized intraperitoneally with 100 μg of the indicated peptide with RIBI adjuvant (MPL+TDM+CWS) (Sigma Immunochemicals). Animals were boosted twice at two-week intervals using the same injection procedure. Sera were obtained following three immunizations (at 6 weeks).
Analysis of Serum Antibody Responses. For radioimmunoassay (RIA), anti-peptide antibodies were determined, before and at different time points after immunization, in 96-well microtiter plates (Dynatech Laboratories, Inc.). Plates were coated with 50 μl of a 100 μg/ml appropriate peptide in phosphate-buffered saline (PBS) pH 7.4 solution overnight at 4° C. The wells were blocked by incubation with 5% dry milk in PBS pH 7.4 for at least two hours. Anti-peptide antibody titers were determined using serial dilutions of sera. […] After washing, specific radioactivity was recorded in a gamma counter (1272 CliniGamma, LKB).
Anti-peptide antibody isotype titers were determined by enzyme-linked immunosorbent assay (ELISA) carried out in 96-well microtiter plates. […] Anti-peptide titers were determined using serial dilutions of sera. […] Again, the plates were washed 4 times with washing buffer and bound enzyme was detected by the addition of 50 μl 1 mg/ml p-nitrophenyl phosphate (Sigma) in 10% diethanolamine (Sigma) pH 9.4. The reaction was stopped by the addition of 50 μl of 0.5 M sodium hydroxide and absorbance values (A405) were determined using Titertek Multiskan (Flow Laboratories, Irvine, Scotland). […]
On the technique in general: An ELISA detects its analyte on a solid surface through an enzyme-linked reagent.

Turning to “(MeL)RMYKPaFDS [sEP67, reference compound]”, in test [1], the “effect on log phase growth (OD600)” value is “little or no effect on growth”. Moreover, the “histopathologic analysis of skin tissue” value in test [2] is reported as “normal pathology”. Turning to “Tyr-Ser-Phe-Lys-Pro-Met-Pro-Leu-(D-Ala)-Arg (YSFKPMPL[dA]R) [EP54, C5a C-terminal decapeptide agonist analog]”, in test [3], the “antibody response to inoculation” value is listed as “no appreciable increase in antibody response”. In the case of “YSFKPMPLaRKQGGFLGL (YSFKPMPL[dA]RKQGGFLGL; listed as Homo sapiens) [peptide 4]”, the “antibody response to inoculation” value is recorded as “immune responses were not produced” in test [3] and “no appreciable increase in antibody response” in test [3] (listed as MUC1 epitope conjugated to the C5a agonist peptide at its C-terminus).
